In PMC9558053, “Development of a novel high-throughput screen for the identification of new inhibitors of protein S-acylation” (The Journal of Biological Chemistry, 2022):

Test system: endogenous SNAP23 S-acylation in HEK293T cells
Assay: mPEG-click S-acylation of endogenous SNAP23 in HEK293T cells
Assay type: cell-based, human
Settings: 25 and 50 μM, 4 h pretreatment + 4 h labeling
Text: Finally, we tested whether TTZ-1 and TTZ-2 were able to block the S-acylation of endogenous proteins in the absence of zDHHC enzyme overexpression. In order to detect the S-acylation of endogenous proteins, we used mPEG-click, a technique that we developed recently ([49]) that is better suited for the click chemistry–based analysis of S-acylation of endogenously expressed proteins. In this assay, cells are labeled with either palmitate (C16:0), or C16:0-azide, lysed, and then subjected to click chemistry with alkyne-mPEG 5K. The addition of mPEG 5K moieties to S-acylated proteins increases their apparent molecular weight, which can be detected directly by immunoblotting. HEK293T cells were pretreated for 4 h with either TTZ-1 or TTZ-2 at 25 and 50 μM and then labeled with fatty acids for another 4 h in the presence of the compounds. We first assessed the S-acylation of endogenous SNAP23 as it is a close relative of SNAP25 (SNAP25 is not expressed in the non-neuronal HEK293T cell line) ([50], [51]). […]
Figure 10 Activity of TTZ-1 and TTZ-2 against the S-acylation of endogenous proteins in mammalian cells. […] The data were quantified, and the graphs below each set of membranes show mean ± SEM of normalized S-acylation of either endogenous SNAP23 (A) or endogenous calnexin (B). […]

Compound | S-acylation of endogenous SNAP23
CCCCCCCOc1ccc(C(=O)Nc2cccc3c2OC(c2nnn[nH]2)CN3)cc1 (centres unmarked) [TTZ-1, N-(2-(1H-Tetrazol-5-yl)-3,4-dihydro-2H-benzo[b][1,4]oxazin-8-yl)-4-(heptyloxy)benzamide] | significant reduction
O=C(Nc1cccc2c1OC(c1nnn[nH]1)CN2)c1ccc(OCCCCc2ccccc2)cc1 (centres unmarked) [TTZ-2, N-(2-(1H-Tetrazol-5-yl)-3,4-dihydro-2H-benzo[b][1,4]oxazin-8-yl)-4-(4-phenylbutoxy)benzamide] | significant reduction
